# Where two headings read alike, the source gives them in different places.
# Key:
# WM-266-4 cells [1] = test: Adhesion assay with WM-266-4 cells on fibronectin; assay type: cell-based, human
# Method: Microtiter plates with 96 wells were coated with 0.5 µg of fibronectin in 50 µl over night at 4° C and blocked with 200 µl adhesion buffer (1% BSA in PBS without Ca^2+/Mg^2+). WM-266-4 cells were pre-incubated with the test compounds at the respective concentrations in serum free medium for 60 min in a shaker (600 rpm) at 37° C. Afterwards, 4 x 10^4 cells in 100 µl were withdrawn and added into each well and incubated for 1 h at 37° C. Medium and non-adherent cells were aspirated and adherent cells were fixed in 4% formalin in PBS. The plates were washed with 0.01 M borate buffer (Stock-solution: 20 mM boric acid, 100 mM sodium tetraborate; pH 8.5; working solution: 0.01 M dilution in H2O) and 50 µl of 0.01 % methylene blue in borate buffer were added, wherein the cells were stained for 10 min at room temperature. The plates were extensively washed with water and air-dried. The air-dried plates were incubated for 45 min with 200 µl/well extraction buffer (a mixture of 0.1 N HCl and absolute EtOH (1:1, vol/vol)), wherein the adherent cells were quantified in an ELISA-reader, which read the extinction at 651 nm.
# The human melanoma cells adhered to the fibronectin coated cell culture dishes. This adhesion is a prerequisite for growth of circulating cells such as occurs when these metastasize to sites distant from the tumor. The compounds described herein can inhibit such adhesion to the extracellular matrix protein fibronection or laminin to various degrees.
# WM-115 cells = test: Wound healing assay (cell migration); assay type: cell-based, human; design: key to inhibit the cell migration of WM-115 cells: (-) means that the cell migration was not inhibited and that the wound healed; (+) means a slight inhibition, which slows the trend to heal; (++) means that the cell migration was inhibited, since only some cells were visible in the wound; (+++) means the absolute inhibition of cell migration; conditions: for concentration at which the migration of human melanoma cells is inhibited: summary of Table 1
# Method: The compounds of the present invention were analyzed by means of a migration-assay, called "wound healing assay", that determines the inhibition-rate of the compounds on human melanoma cell line migration. Another migration assay, the so-called the Oris™ cell migration assay, is also applicable to examine the cell migration inhibitory effects of the compounds of the present invention. The used melanoma cells lines were WM-115 and WM-266-4, which are accepted in-vitro model cell systems. The human cell line WM-115 is derived from the primary tumor of a vertical growth phase (VGP) melanoma, whereas the cell line WM-266-4 is derived from the corresponding cutaneous metastasis. The "wound healing assay" is applicable to examine the cell migration inhibitory effects of the compounds of the present invention, which is described in further detail in the Examples. Furthermore, the "wound healing assay" is based on the fact that when wounded or scratched, cell monolayers respond to the disruption of cell-cell contacts and an increased concentration of growth factors at the wound margin by healing the wound through a combination of proliferation and migration, according to Yarrow, J.C., et al., BMC Biotechnol., 2004: 4, 21-29. In order to investigate the cell migration an intact cell monolayer is wounded with a pipette tip.
# The wound healing assay has been carried out according to description as disclosed in Yarrow, J.C., et al., BMC Biotechnol., 2004: 4, 21-29. For carrying out the wound healing assay, 2 x 10^5 cells were grown in one well of a 12-well-plate under cell culture specific conditions for 24 h. After 24 h, a wound has been scratched in the confluently grown cell monolayer with a 100 µl pipette-tip. Detached cells were removed by washing with serum-free medium and new media with the respective compounds to be tested were supplemented with varying amounts. The cells were incubated under cell culture specific conditions and always the same section was photographed after 2, 4, 8 and 24 under the phase contrast microscope. The untreated cells healed the wound through a combination of proliferation and migration after 24 h.
# The following table (Table 1) is a summary of the results obtained by carrying out the above described wound healing assay with varying amounts of compounds of the present invention to inhibit the cell migration of WM-115 cells, wherein (-) means that the cell migration was not inhibited and that the wound healed, (+) means a slight inhibition, which slows the trend to heal, (++) means that the cell migration was inhibited, since only some cells were visible in the wound, and (+++) means the absolute inhibition of cell migration. The abbreviation "n.d." means "not determined".
# murine B16F10 cells = conditions: cited from earlier work
# human WM-115 cells = conditions: cited from earlier work
# [2] = system: matrix-metalloproteinase-2 (MMP-2); conditions: cited from earlier work
# WM-115 [3] = conditions: WM-115, at 5 mM; cited from earlier work
# WM-266-4 cells [4] = conditions: WM-266-4, at 5 mM; cited from earlier work
# WM-115 [5] = conditions: WM-115, 5 mM; cited from earlier work
# WM-266-4 = conditions: WM-266-4, 2.5 mM; cited from earlier work
# human melanoma cells [6] = system: human melanoma cells
# human melanoma cells [7] = test: Vitality test with Trypanblue; conditions: cells of the migration assay
# HBMEC-60 cells = test: Adhesion assay with HBMEC cells (TNF-α stimulated) on laminin; assay type: cell-based, human
# Method: Microtiter plates with 96 wells coated with the extracellular matrix component type I collagen, fibronenctin or laminin were used. HBMEC-60 cells which had been pre-incubated with the tumor necrosis factor (TNF-α, 40 ng/ml) for 24 hrs were incubated with the test compounds at the respective concentrations in serum free medium for endothelial cells (Promozell, Heidelberg, Germany) without growth factors for 30 min in 1.5 mL microfuge tubes (Eppendorf, Hamburg, Germany). Afterwards, 4 x 10^4 HBMEC-60 cells in 100 µl were withdrawn and added into each well. The plates were incubated at 37° C for 30 min and subsequently washed twice with PBS (with CaCl2 und MgSO4). Then, the adherent cells were fixed, washed and stained with methylene blue, the dye released and the extinction read as described above for the experiments with the melanoma cells.
# Adhesion of endothelial cells to extracellular matrix proteins like laminin is a prerequisite for angiogenesis.
Structure (SMILES),inhibition of the adhesion of WM-266-4 cells to fibronectin (WM-266-4 cells [1]; concentration of 5 mM),inhibit the cell migration of WM-115 cells (WM-115 cells; Concentration 0.1 mM),inhibit the cell migration of WM-115 cells (WM-115 cells; Concentration 1 mM),inhibit the cell migration of WM-115 cells (WM-115 cells; Concentration 2.5 mM),inhibit the cell migration of WM-115 cells (WM-115 cells; Concentration 5mM),concentration at which the migration of human melanoma cells is inhibited (WM-115 cells),vitality test with Trypanblue (human melanoma cells [6]),also measured
"O=S(=O)(O)OCc1cocc1CO[C@@H]1O[C@H](CO)[C@H](O)[C@H](O)[C@H]1O [GSF, 3-β-D-galactopyranosyl-oxymethyl-4-sulfato-methyl-furan]",26%,-,-,+,+++,greater than or equal to 2.5 mM,,inhibition of the adhesion of WM-266-4 cells to fibronectin (WM-266-4 cells [1]; concentration of 0.1 mM): 8%; inhibition of adhesion to fibrinogen (murine B16F10 cells; at 20 mM or rather 10 mM): completely inhibits; inhibition of adhesion to fibronectin (murine B16F10 cells; at 40 mM): completely inhibits; inhibition of adhesion to fibrinogen (human WM-115 cells; at 20 mM or rather 10 mM): completely inhibits; inhibition of adhesion to fibronectin (human WM-115 cells; at 40 mM): completely inhibits; activation of the matrix-metalloproteinase-2 (MMP-2) [2]: decreased; inhibition of migration (WM-115 [3]): inhibited; inhibition of migration (WM-266-4 cells [4]): inhibited; inhibition of cell migration into a wound (WM-115 [5]): no detectable migration; inhibition of cell migration into a wound (WM-266-4): no detectable migration
"O=S(=O)(O)OCc1cocc1CO[C@@H]1O[C@H](CO)[C@@H](O)[C@H](O)[C@H]1O [GluSF, 3-(β-D-glucopyranosyl-oxymethyl)-4-(sulfatomethyl)-furan]",79%,-,+,+,+++,1 mM,cells were intact,
"OC[C@H]1O[C@@H](OCc2cocc2CF)[C@H](O)[C@@H](O)[C@H]1O [GFF, 3-(β-D-galactopyranosyl-oxymethyl)-4-(fluoro-methyl)-furan]",,,+,+++,+++,,,"inhibition at 100 µM (WM-266-4 cells [1]; Homo sapiens, WM 266-4, concentration of 0.1 mM): 34%; inhibition at 5000 µM (WM-266-4 cells [1]; Homo sapiens, WM 266-4, concentration of 5 mM): 62%; vitality test with Trypanblue (human melanoma cells [7]): cells were intact"
"O=S(=O)(O)OCc1cocc1CO[C@@H]1O[C@H](COS(=O)(=O)O)[C@H](O)[C@H](O)[C@H]1O [GSSF, 3-(6-sulfato-β-D-galactopyranosyl-oxymethyl)-4-(sulfatomethyl)-furan]",,++,++,+++,+++,0.1 mM,cells were intact,"inhibition of HBMEC-60 cell adhesion to laminin (HBMEC-60 cells; 10 mM, compared with 10 mM GSF): better inhibitor; inhibition of endothelial cell adhesion to laminin (HBMEC-60 cells; concentrations of 0.1, 0.5, 1 and 5 mM): significantly inhibited"

# — EP2474552A1, “New saccharide mimics and their use as inhibitors of angiogenesis and metastasis formation” (Deutsches Krebsforschungszentrum, priority 2011, dated 2012)
